The values below come from patent US20150353495A1 (PORTOLA PHARMACEUTICALS, INC., priority 2010, published 2015).

Assay type in all cases: biochemical
For assay [1], the target named is T1, JAK2 (Homo sapiens, UniProt O60674).
T1 construct: 5 μl of catalytic domain recombinant Kinase enzyme+Tyr peptide substrate (Invitrogen, CA); purchased Invitrogen
Put plainly: Z'-LYTE kinase assay JAK2. Summed up:
(§1)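 Z′-LYTE FRET, Tyr6 peptide, recombinant catalytic domain + ATP, 1 h RT, 1% DMSO final, duplicates; protease development 1 h RT; fluorescence read.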

Assay [2] has as its target T2, JAK1 (Homo sapiens, UniProt P23458).
T2 construct: 5 μl of catalytic domain recombinant Kinase enzyme+Tyr peptide substrate (Invitrogen, CA); purchased Invitrogen
As to the kind of experiment: Z'-LYTE kinase assay JAK1. An outline of the steps: as §1

Assay [3] has as its target T3, JAK3 (Homo sapiens, UniProt P52333).
T3 construct: 5 μl of catalytic domain recombinant Kinase enzyme+Tyr peptide substrate (Invitrogen, CA); purchased Invitrogen
Put plainly: Z'-LYTE kinase assay JAK3. Summed up:
as §1

T3 sequence (P52333 822-1111 limits assumed): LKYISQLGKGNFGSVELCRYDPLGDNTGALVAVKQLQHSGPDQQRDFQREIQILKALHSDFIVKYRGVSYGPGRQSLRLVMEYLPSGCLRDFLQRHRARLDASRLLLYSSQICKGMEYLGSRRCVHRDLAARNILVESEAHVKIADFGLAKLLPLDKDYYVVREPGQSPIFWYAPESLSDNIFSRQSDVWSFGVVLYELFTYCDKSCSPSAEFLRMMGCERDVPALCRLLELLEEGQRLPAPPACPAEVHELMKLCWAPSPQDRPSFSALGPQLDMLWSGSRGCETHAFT
T2 sequence (P23458 875-1153 limits assumed): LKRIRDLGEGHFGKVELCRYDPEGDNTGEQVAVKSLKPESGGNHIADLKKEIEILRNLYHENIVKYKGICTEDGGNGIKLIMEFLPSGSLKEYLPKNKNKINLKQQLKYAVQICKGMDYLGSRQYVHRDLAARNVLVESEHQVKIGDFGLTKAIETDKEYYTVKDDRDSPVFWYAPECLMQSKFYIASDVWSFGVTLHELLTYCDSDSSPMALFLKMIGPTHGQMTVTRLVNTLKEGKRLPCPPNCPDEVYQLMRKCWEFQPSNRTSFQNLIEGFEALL
T1 sequence (O60674 849-1124 limits assumed): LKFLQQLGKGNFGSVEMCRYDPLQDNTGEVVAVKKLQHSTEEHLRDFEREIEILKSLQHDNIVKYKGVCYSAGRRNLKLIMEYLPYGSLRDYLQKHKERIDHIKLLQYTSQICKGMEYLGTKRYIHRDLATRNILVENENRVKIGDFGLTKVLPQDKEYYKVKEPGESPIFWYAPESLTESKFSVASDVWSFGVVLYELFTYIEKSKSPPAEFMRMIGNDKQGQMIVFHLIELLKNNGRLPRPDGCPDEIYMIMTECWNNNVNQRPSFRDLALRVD

For orientation: IC50 means the midpoint of a concentration-inhibition curve. Regarding `NC(=O)c1cnc(Nc2ccc(-n3cccn3)cc2)cc1NCc1ccccc1` [Example 277, 6-(4-(1H-pyrazol-1-yl)phenylamino)-4-(benzylamino)nicotinamide], the results for the IC50 in assay [1], in assay [2] and in assay [3] were > 1000 nM, > 1000 nM and 10 to 100 nM, respectively.
On to `NC(=O)c1cnc(Nc2ccc(-n3cccn3)nc2)cc1NCc1ccccc1` [Example 278, 6-(6-(1H-pyrazol-1-yl)pyridin-3-ylamino)-4-(benzylamino)nicotinamide], for which the IC50 is > 1000 nM in assay [1], > 1000 nM in assay [2] and 100 to 1000 nM in assay [3].
For `COc1ccc(Nc2cc(NCc3ccccc3)c(C(N)=O)cn2)cc1C` [Example 279, 4-(benzylamino)-6-(4-methoxy-3-methylphenylamino)nicotinamide], the IC50 in assay [1] was > 1000 nM; in assay [2] it was > 1000 nM; in assay [3], 10 to 100 nM.
Turning to `COc1cc(Nc2cc(NCc3ccccc3)c(C(N)=O)cn2)cc(OC)c1OC` [Example 280, 4-(benzylamino)-6-(3,4,5-trimethoxyphenylamino)nicotinamide], the figures for the IC50 in assay [1], in assay [2] and in assay [3] were 100 to 1000 nM, > 1000 nM and 10 to 100 nM, respectively.
Taken in the same sequence, the figures for `NC(=O)c1cnc(Nc2ccc(-c3nc[nH]n3)cc2)cc1NCc1ccccc1` [Example 281, 6-(4-(1H-1,2,4-triazol-3-yl)phenylamino)-4-(benzylamino)nicotinamide] were 100 to 1000 nM, 100 to 1000 nM and 10 to 100 nM.
For `COc1ccc(Nc2cc(NCc3cccc4cc[nH]c34)c(C(N)=O)cn2)cc1` [Example 282, 4-((1H-indol-7-yl)methylamino)-6-(4-methoxyphenylamino)nicotinamide], the half-maximal inhibitory concentration (IC50) in assay [1] was > 1000 nM; in assay [2] it was > 1000 nM; in assay [3] it was 10 to 100 nM.
`COc1ccc(Nc2cc(NCc3cncnc3)c(C(N)=O)cn2)cc1` [Example 286, 6-(4-methoxyphenylamino)-4-(pyrimidin-5-ylmethylamino)nicotinamide]: the half-inhibitory concentration (IC50) in assay [1] is > 1000 nM; in assay [2], > 1000 nM; in assay [3] it was 100 to 1000 nM.
`Cc1cc(Nc2cc(NCc3cncnc3)c(C(N)=O)cn2)ccc1C(=O)N(C)C` [Example 287, 6-(4-(dimethylcarbamoyl)-3-methylphenylamino)-4-(pyrimidin-5-ylmethylamino)nicotinamide]: the values for the IC50 in assay [1], in assay [2] and in assay [3] were > 1000 nM, > 1000 nM and 100 to 1000 nM, respectively.
Turning to `CN(C)C(=O)c1ccc(Nc2cc(NCc3cccc4cc[nH]c34)c(C(N)=O)cn2)cc1` [Example 288, 4-((1H-indol-7-yl)methylamino)-6-(4-(dimethylcarbamoyl)phenylamino)nicotinamide], the IC50 is 10 to 100 nM in assay [1], > 1000 nM in assay [2] and 1 to 10 nM in assay [3].
Taken in the same sequence, the figures for `CCS(=O)(=O)N1CCC[C@H](CNc2cc(Nc3ccc(OC)cc3)ncc2C(N)=O)C1` [Example 289, (R)-4-((1-(ethylsulfonyl)piperidin-3-yl)methylamino)-6-(4-methoxyphenylamino)nicotinamide] were 100 to 1000 nM, > 1000 nM and 10 to 100 nM.
Taken in the same sequence, the figures for `COc1ccc(Nc2cc(NC[C@H]3CCCN(C(=O)N4CCCC4)C3)c(C(N)=O)cn2)cc1` [Example 290, (R)-6-(4-methoxyphenylamino)-4-((1-(pyrrolidine-1-carbonyl)piperidin-3-yl)methylamino)nicotinamide] were > 1000 nM, > 1000 nM and 100 to 1000 nM.
In the case of `COc1ccc(Nc2cc(NC[C@H]3CCCN(C(=O)N(C)C)C3)c(C(N)=O)cn2)cc1` [Example 291, (R)-4-((1-(dimethylcarbamoyl)piperidin-3-yl)methylamino)-6-(4-methoxyphenylamino)nicotinamide], the values for the IC50 in assay [1], in assay [2] and in assay [3] were > 1000 nM, > 1000 nM and 100 to 1000 nM, respectively.
Turning to `COc1ccc(Nc2cc(NC[C@H]3CCCN(S(=O)(=O)C4CC4)C3)c(C(N)=O)cn2)cc1` [Example 292, (R)-4-((1-(cyclopropylsulfonyl)piperidin-3-yl)methylamino)-6-(4-methoxyphenylamino)nicotinamide], the results for the IC50 in assay [1], in assay [2] and in assay [3] were > 1000 nM, > 1000 nM and 100 to 1000 nM, respectively.
As for `COc1ccc(Nc2cc(NCc3ccccc3)c(C(N)=O)cn2)cc1OC` [Example 293, 4-(benzylamino)-6-(3,4-dimethoxyphenylamino)nicotinamide], the figures for the IC50 in assay [1], in assay [2] and in assay [3] were 100 to 1000 nM, 100 to 1000 nM and 10 to 100 nM, respectively.
Take `Cc1cc(Nc2cc(NCc3cccc4[nH]ccc34)c(C(N)=O)cn2)ccc1C(=O)N(C)C` [Example 295, 4-((1H-indol-4-yl)methylamino)-6-(4-(dimethylcarbamoyl)-3-methylphenylamino)nicotinamide]: the IC50 in assay [1] is 1 to 10 nM; in assay [2], 1 to 10 nM; in assay [3], < 1 nM.
`COc1ccc(Nc2cc(NCc3cncc(F)c3)c(C(N)=O)cn2)cc1` [Example 296, 4-((5-fluoropyridin-3-yl)methylamino)-6-(4-methoxyphenylamino)nicotinamide]: the results for the IC50 in assay [1], in assay [2] and in assay [3] were 100 to 1000 nM, 100 to 1000 nM and 10 to 100 nM, respectively.
In the case of `COc1ccc(Nc2cc(NCc3ccncn3)c(C(N)=O)cn2)cc1` [Example 298, 6-(4-methoxyphenylamino)-4-(pyrimidin-4-ylmethylamino)nicotinamide], the IC50 in assay [1] is > 1000 nM; in assay [2], > 1000 nM; in assay [3], 100 to 1000 nM.
`CN(C)C(=O)c1ccc(Nc2cc(NCc3ccncn3)c(C(N)=O)cn2)cc1` [Example 299, 6-(4-(dimethylcarbamoyl)phenylamino)-4-(pyrimidin-4-ylmethylamino)nicotinamide]: the IC50 in assay [1], in assay [2] and in assay [3] was > 1000 nM each time.
Take `COc1ccc(Nc2cc(NCc3ncccn3)c(C(N)=O)cn2)cc1` [Example 300, 6-(4-methoxyphenylamino)-4-(pyrimidin-2-ylmethylamino)nicotinamide]: the IC50 in assay [1] was > 1000 nM; in assay [2], > 1000 nM; in assay [3], 100 to 1000 nM.
On to `COc1ccc(Nc2cc(NCc3cccc(S(C)(=O)=O)c3)c(C(N)=O)cn2)cc1` [Example 301, 6-(4-methoxyphenylamino)-4-(3-(methylsulfonyl)benzylamino)nicotinamide], for which the results for the IC50 in assay [1], in assay [2] and in assay [3] were > 1000 nM, > 1000 nM and 10 to 100 nM, respectively.
On to `CN(C)C(=O)c1ccc(Nc2cc(NCc3cccc(S(C)(=O)=O)c3)c(C(N)=O)cn2)cc1` [Example 302, 6-(4-(dimethylcarbamoyl)phenylamino)-4-(3-(methylsulfonyl)benzylamino)nicotinamide], for which the IC50 was 100 to 1000 nM in assay [1], > 1000 nM in assay [2] and 10 to 100 nM in assay [3].
Taken in the same sequence, the figures for `COc1ccc(Nc2cc(NCc3cccc4c3ccn4C)c(C(N)=O)cn2)cc1` [Example 303, 6-(4-methoxyphenylamino)-4-((1-methyl-1H-indol-4-yl)methylamino)nicotinamide] were > 1000 nM, > 1000 nM and 10 to 100 nM.
